For series [1], the system named is murine Hb9-GFP+ motor neurons in co-culture with ALS patient iAstrocytes. Briefly: Human iAstrocyte - murine Hb9-GFP+ motor neuron co-culture. It counts as cell-based, human iAstrocytes. Particulars: for rescue of motor neuron survival in co-culture with patient-derived iAstrocytes (FIG. 3): 72 hours co-culture, dose dependant, maximum responses close to positive control (1 μM Nilotinib); for efficacy at very high concentrations (motor neuron survival): potentially due to compound toxicity. The text has this:
iNPCs (induced Neuronal Progenitor Cells) were derived from ALS patient fibroblasts as described previously (Meyer et al. 20148). iNPCs were differentiated into iAstrocytes by culturing in iAsrocyte media for at least 5 days. Murine motor neurons expressing the green fluorescent protein (GFP) under the Hb9 motor neuron-specific promoter (called from now on Hb9-GFP+) were differentiated from murine embryonic stem cells via embryoid bodies (EBs), as previously described (Haidet-Phillips et al. 20119, Wichterle et al. 200210).
iNPCs and mESC were split into iAstrocyte media and mEB media respectively on the same day, such that iAstrocytes and motor neurons will have both differentiated for 7 days when seeded together in co-culture.
Changed media on iAstrocytes, and split using accutase if 90-100% confluent 3 days after seeding from iNPCs. iAstrocytes were left a further 2 days in iAstrocyte media until seeded onto 384-well plates.
Diluted fibronection 1:400 in PBS, and 5 μL added per well. The plate was incubated with fibronectin at room temp for at least 5 mins.
The media was removed from iAstrocytes, and washed in PBS. 1 mL accutase per 10 cm plate was added, and incubated at 37° C. for 4 mins. The plate was tapped to dislodge any remaining iAstrocytes. The iAstrocytes were resuspended in iAstro media, and centrifuged at 200×g for 4 mins. The supernatant was removed, the falcon was flicked to vortex the cells, and resuspended the cells in an appropriate amount of iAstrocyte media. Counted cells using the haemocytometer, and diluted cells to an appropriate dilution for seeding. Seeded 1-2,000 iAstrocytes in 35 μL media on fibronectin-coated 384-well plates. Centrifuged 384-well plates at 1,760×rpm for 60 s using a PK120 (ALC) centrifuged (in neurogenetics) to collect media and cells to base of wells. Plates were left for 24 h for iAstrocytes to adhere to plate.
Drugs were delivered in 100% drug-grade DMSO to iAstrocyte media using an Echo550 liquid handler (Labcyte). 384-well plates were centrifuged at 1,760×rpm for 60 s using a PK120 (ALC) centrifuge.
2 plates of EBs were collected in a 50 mL tube and centrifuged for 4 mins at 200×g. The supernatant was removed from EBs after centrifugation, and washed in 10 mL PBS then centrifuged again for 4 mins at 200×g, and PBS wash removed.
For each 50 mL tube, 2.75 mL EB dissociation buffer was added and then 250 μL 200 U/mL (10×) Papain. The solution was gently pipetted up and down 10 times, using a P1000 pipette, against the side of the falcon (EB pellet was not pipetted directly). 50 mL tube was put in 37° C. water bath and incubated for 5 mins. Tube removed every 3 mins and gently shaken. After 5 mins, additional 2 mL of EB dissociation and 100 μL 200 U/mL (10×) Papain were added, which was then pipette again 5 times with P1000 pipette, and returned to the water bath for another 5 mins. It was returned to water bath as before, and incubated for no longer than 15-20 mins.
Centrifuged for 5 mins at 300×g. Each 50 mL tube, 2.7 mL EB dissociation was prepared, to which 300 μL FBS and 150 μL 0.5 mg/mL DNaseI was added. The supernatant was removed from dissociated EBs and 3 mL of the FBS/DNaseI mix was added, pipetted up and down with P1000 pipette about 5 times. 5 mL FBS was added very slowly to the bottom of the falcon containing the dissociated EBs. The supernatant was removed and the cells very gently resuspended in about 3 mL MN media (more used if the pellet is large) and filtered through a 40 μm filter. 1 mL extra MN media was added to wash the filter.
2,500 murine Hb9-GFP+ motor neurons were seeded per well in 10 μL motor neuron media on top of the pre-treated iAstrocytes. 384-well plates were centrifuged at 1,760×rpm for 60 s using a PK120 (ALC) centrifuge.
Day8 15 μL motor neuron media were added per well. Hb9-GFP+ motor neurons were imaged using an INCELL analyser 2000 (GE Healthcare)—day 1 of co-culture. […]

In series [2] the test system is α-synuclein in ReNcell VM Neuronal cells. Briefly: Modulation of α-synuclein aggregation. It counts as cell-based. To be noted: for amount of α-synuclein present in ReNcell VM neuronal cells (FIG. 4): 6 days of compound treatment, antibodies Syn205 and MJF-14; for IC50: ReNcell VM, 100% = reduction equal to 10 μM KU0063794, 0% = 0.1% DMSO. The procedure: Compounds were assessed for their ability to modulate α-synuclein aggregation. ReNcell VM Neuronal cells were transduced with α-synuclein encoded adenovirus, and compounds were added after 24 hours. After 72 hours, compound was refreshed. After an additional 72 h, cells were fixated (a total of 6 days of compound treatment). Two distinct α-synuclein antibodies were added (Syn205 and MJF-14), imaging was performed on IN Cell 2200 at 10× magnification. Immunoreactivity is quantified by a high content algorithm. Compound data is normalized to a negative control (0.1% DMSO) and a positive control (10 μM KU0063794; CAS 938440-64-3).

For another series, the system named is HUVEC. As to the kind of experiment: HUVEC Cell Viability (CV) assay. Type of series: cell-based, human. To be noted: Homo sapiens, alamarBlue. Here is the method: Cells are seeded at 10,000 cells/well in 96-well plates in HUVEC specific cell culture media. Cells are plated and cultured overnight (16-24 h) at 37° C. After the overnight culture, cells are washed and fed with the Assay Medium. Test compounds are applied and incubated with the cells for the designated time period, after which the cell viability is measured by alamarBlue method. […] The final DMSO concentration is 1%.
Fluorescence readings are recorded after the test compound and alamarBlue incubation. The excitation and emission wavelengths are 530 nm and 590 nm, respectively.
The percent of control is calculated by comparing the readings in the presence of the test compound to the vehicle control. Subsequently, the percent inhibition is calculated by subtracting the percent control activity from 100. IC50 values (concentration causing a half-maximal inhibition of the control value) are determined by non-linear regression analysis of the concentration-response curves using the Hill equation.
The reference compound used for this assay is Staurosporine.

For series [3], the system named is HUVEC (human umbilical venous endothelial cells). As to the kind of experiment: HUVEC Tube Formation assay. It counts as cell-based. Here is the method:
HUVEC (human umbilical venous endothelial cells, 1.5×10^4/well, ATCC CRL-1730) are placed in an earlier prepared 96-well plate. Test substance and/or vehicle is then added to each well in a final concentration of 0.4% DMSO in growth medium under an atmosphere of 5% CO2 at 37° C. After an 18 h incubation period, morphology of the endothelial cell tubes, which resemble a capillary-like network, are evaluated by a confocal high-content imaging system. Disruption (anti-angiogenesis) of total tube length is measured from each photograph and determined relative to the vehicle control group. […] Compounds are screened at 30, 3, 0.3, 0.03 and 0.003 μM (or μg/mL) in triplicate.

For series [4], the system named is SC-hCMs (stem cell cardiomyocytes). Briefly: Cardiomyocyte assay (CRL), iPSC cardiomyocytes. Type of series: cell-based, human. Particulars: for ΔΔ Na Spike Amp at 10 μM, 48 h (%): corrected by time matched controls. The procedure:
All measurements were performed at physiological temperature in a tissue culture incubator (37° C.; 5% CO2). Test article, positive controls and vehicle were added in a sterile tissue culture hood.
At least 10 h before compound addition SC-hCMs were exposed to the fresh culture medium. Before compound addition a one-minute recording of field potentials and impedance signals (baseline) was obtained. Test articles, vehicle and positive controls were added as a 2× concentration. One-minute recordings were obtained 0.5, 1, 2, 24 and 48 h after test article addition.
At the time of drug application, culture medium was added to an independent 96 well plate that was incubated in a tissue culture incubator for 48 h. This culture medium was used as the blank of the cTnI release assay.
After the 48 h exposure recording, 150 μL of each well was centrifuged to remove debris. The supernatant was collected and frozen for later cTnI content analysis using an ELISA plate according the manufacturer's instructions (Abcam, cat #ab200016).
Data was stored on the Charles River Laboratories computer network for off-line analysis. Data acquisition was performed using RTCA Cardio Software.
Data analysis was performed using RTCA Cardio Software, Microsoft Excel and Matlab scripts. Data were reported as mean±SEM.
The following field potential parameters were quantitated: Sodium Spike amplitude, Sodium Spike Rate, field potential duration (FPD), Bazett corrected field potential duration (FPDcB), and dysrhythmic events if present.
The following impedance parameters were quantitated: Cell Index, peak amplitude, relaxation from peak to 50% amplitude (Rel50) and twitch duration.
The sodium spike is the voltage signal produced by the propagation of the depolarizing wave (positive peak) and the local activation of sodium channels (negative peak). The sodium spike amplitude is the voltage difference (in […]) between the positive and negative peaks of the sodium spike. The Sodium Spike Rate is a measure of the rate of sodium spike generation (spikes/min) produced by the spontaneous beating of stem cell cardiomyocytes.
Abnormal rhythm activity was characterized by the presence of the following proarrhythmic markers:
Triggered activity: Triggered activity (TA) is activity characterized by the presence of voltage oscillations during the repolarization period (Early After Depolarizations, EADs) or after the repolarization is completed (Delayed After Depolarizations, DADs). They are produced by different mechanisms. EADs are due to reactivation of sodium and calcium currents due to prolongation of the action potential. DADs are due to transient releases of calcium from intracellular calcium stores. Both EADs and DADs can trigger action potentials (ectopic beats, EB).
Impedance instability: Impedance instability (II) consist of small oscillations of the impedance signal during the slower relaxation phase of the impedance twitch sometimes associated with small oscillations of the field potential (FPO). […] II informs about the possibility of drug-induced delayed repolarization setting the background where more robust proarrhythmic markers like EADs and DADs occur.
The SEM of the difference was calculated according to the following equation ΔΔSEM=(SEMtreatment2+SEMcontrol2)0.5.
The statistical analysis includes 1) a Student paired t-test to evaluate the changes respect to baseline and, 2) a multi-comparison analysis (Dunnett's test) of A % changes respect to time matched controls. An alpha probability of 0.05 was considered significant.

Read-outs that look alike come from different tables or passages of the source.

These results are taken from patent US20230014226A1, “NEW COMPOUNDS AND METHODS” (BenevolentAI Bio Limited, priority 2019, published 2023).

On to `Cc1ccc(C(=O)Nc2cnn(C(C)C3CC3)c2)cc1C#Cc1cccnc1` (centres unmarked) [Example 17, N-[1-(1-cyclopropylethyl)-1H-pyrazol-4-yl]-4-methyl-3-[2-(pyridin-3-yl)ethynyl]benzamide], for which, in series [1], the “rescue of motor neuron survival in co-culture with patient-derived iAstrocytes (FIG. 3)” value (“rescue of motor neuron survival” below) is reported as “rescue motor neuron survival” and the “efficacy at very high concentrations (motor neuron survival)” value is on record as “reduction in efficacy at very high concentrations”.
`Cc1ccc(C(=O)Nc2cnn(C(C)(C)C)c2)cc1C#Cc1cccnc1` [Example 10, N-(1-tert-butyl-1H-pyrazol-4-yl)-4-methyl-3-[2-(pyridin-3-yl)ethynyl]benzamide]: the “rescue of motor neuron survival” value in series [1] is “rescue motor neuron survival”.
For the compound `Cc1ccc(C(=O)Nc2cc3n(n2)CCC3(C)C)cc1C#Cc1cccnc1` [Example 26, N-(4,4-dimethyl-5,6-dihydropyrrolo[1,2-b]pyrazol-2-yl)-4-methyl-3-[2-(3-pyridyl)ethynyl]benzamide], the “rescue of motor neuron survival” value in series [1] is “rescue motor neuron survival”. For the same compound, in series [2], the “amount of α-synuclein present in ReNcell VM neuronal cells (FIG. 4)” value is listed as “dose dependant reduction” and the IC50 lay in the range of 1000 to 10000 nM.
As to `Cc1ccc(C(=O)Nc2cnn(C(C)C)c2)cc1C#Cc1cccnc1` [Example 24, N-(1-isopropylpyrazol-4-yl)-4-methyl-3-[2-(3-pyridyl)ethynyl]benzamide], in series [1], the “rescue of motor neuron survival” value was “rescue motor neuron survival” and the “efficacy at very high concentrations (motor neuron survival)” value is recorded as “reduction in efficacy at very high concentrations”. In series [2], the “amount of α-synuclein present in ReNcell VM neuronal cells (FIG. 4)” value is given as “dose dependant reduction” and the IC50 lay within 1000 to 10000 nM.
`Cc1ccc(C(=O)Nc2ccc(CN3CCN(C)CC3)c(C(F)(F)F)c2)cc1C#Cc1cnc2cccnn12` [Comparative Example 2, 3-(imidazo[1,2-b]pyridazin-3-ylethynyl)-4-methyl-N-[4-[(4-methyl-1-piperazinyl)methyl]-3-(trifluoromethyl)phenyl]benzamide, reference compound] returned an IC50 in the series with HUVEC of 320 nM. Besides, the GI50 in series [3] (18 h, read-out: Tube formation GI50 (μM)) stood at 1.2 µM. Besides, in series [4] (10 μM, 48 h), the “Proarrhythmic Markers at 10 μM, 48 h” value is “Q and RV”; the “ΔΔ Na Spike Amp at 10 μM, 48 h (%)” value is “(cells quiescent)”.
For `Cc1cn(-c2cc(NC(=O)c3ccc(C)c(Nc4nccc(-c5cccnc5)n4)c3)cc(C(F)(F)F)c2)cn1` [nilotinib, Nilotinib], the “effect on sodium spike amplitude vs. control (given as reduction for nilotinib and Example 39)” value in series [4] (10 μM after 48 hours) was found to be 96.2%. In addition, the “proarrhythmic markers observed” value in series [4] (10 μM, 48 h) was “triggered activity and impedance instability”.
The compound `Cc1cn(-c2cc(NC(=O)c3ccc(C)c(Nc4nccc(-c5cccnc5)n4)c3)cc(C(F)(F)F)c2)cn1` [Comparative Example 3, 4-methyl-N-[3-(4-methylimidazol-1-yl)-5-(trifluoromethyl)phenyl]-3-[(4-pyridin-3-ylpyrimidin-2-yl)amino]benzamide, reference compound] registered an IC50 in the series on HUVEC of 3600 nM. Also, the GI50 in series [3] (18 h incubation, read-out: Tube formation GI50) is over 10 µM. Besides, in series [4] (10 μM, 48 h), the “Proarrhythmic Markers at 10 μM, 48 h” value is “II and TA”; the “ΔΔ Na Spike Amp at 10 μM, 48 h (%)” value is given as −96.2%.
